The values below come from patent US11358969B2, “Indole AHR inhibitors and uses thereof” (Ikena Oncology, Inc., priority 2017, dated 2022).

Structures are written as SMILES. Where only a bound is given, the exact number is not on record here.

This assay addresses T1, AHR (UniProt P35869).
T1 construct: IC50
T1 sequence (P35869 1-848): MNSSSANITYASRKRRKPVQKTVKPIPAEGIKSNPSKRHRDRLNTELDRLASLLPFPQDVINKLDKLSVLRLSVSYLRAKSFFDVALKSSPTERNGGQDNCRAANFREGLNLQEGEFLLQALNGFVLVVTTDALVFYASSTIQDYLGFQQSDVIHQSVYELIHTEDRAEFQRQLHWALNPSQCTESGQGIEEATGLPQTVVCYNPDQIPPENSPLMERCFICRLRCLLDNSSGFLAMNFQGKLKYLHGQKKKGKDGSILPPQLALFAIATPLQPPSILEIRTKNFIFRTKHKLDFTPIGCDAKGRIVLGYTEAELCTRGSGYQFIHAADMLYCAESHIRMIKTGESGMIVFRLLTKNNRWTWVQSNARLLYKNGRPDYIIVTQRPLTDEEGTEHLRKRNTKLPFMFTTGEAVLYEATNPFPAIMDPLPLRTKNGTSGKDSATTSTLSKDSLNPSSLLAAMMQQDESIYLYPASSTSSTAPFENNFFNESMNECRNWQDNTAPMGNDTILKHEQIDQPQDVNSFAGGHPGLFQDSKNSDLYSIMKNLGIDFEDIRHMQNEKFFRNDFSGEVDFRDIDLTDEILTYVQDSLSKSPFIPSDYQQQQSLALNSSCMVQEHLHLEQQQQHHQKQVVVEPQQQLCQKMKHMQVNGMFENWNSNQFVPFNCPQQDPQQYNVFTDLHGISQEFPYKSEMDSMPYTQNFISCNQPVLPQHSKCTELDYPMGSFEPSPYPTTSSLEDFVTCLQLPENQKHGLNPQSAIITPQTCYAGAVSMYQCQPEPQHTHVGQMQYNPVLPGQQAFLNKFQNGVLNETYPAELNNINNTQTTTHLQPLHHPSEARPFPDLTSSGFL
The assay is described as follows: DRE-Luciferase Reporter Assay (Alternate Method) (Example 1B). The assay is classed as cell-based, murine or human. The note with it: cell line and AHR activating ligand not specified. How it is done: AHR binds to Dioxin Responsive Elements (DRE) upstream of genes that it activates. One measure of AHR activity is activation of a reporter gene, such as luciferase, downstream of one or multiple DRE elements. Luciferase activity will reflect activation and inhibition of AHR in the cells expressing his reporter.
Murine Hepa1-6 or Hepa-1c1c7 or other murine cell line with a DRE-luciferase reporter either stably or transiently transfected were plated in media in plates (96-well, 384-well or other plates) and incubated overnight at 37° C. in a CO2 incubator or compound and agonist were added at the time of plating. Likewise, human HepG2 or other human cell line with a DRE-luciferase reporter either stably or transiently transfected were plated in media in plates (96-well, 384-well or other plates) and incubated overnight at 37° C. in a CO2 incubator or compound and agonist were added at the time of plating.
At the time that cells are plated or following incubation overnight, an AHR activating ligand, such as TCDD, kynurenine, ITE (2-(1H-indole-3-ylcarbonyl)-4-thiazolecarboxylic methyl ester), VAF347, BNF (beta-naphthoflavone), FICZ (6-formylindolo(3,2-b) carbazole or other AHR ligands, was added with or without AHR antagonist.
Cells were incubated for 4, 15 or 24 hours or another time point and then lysed for determination of luciferase activity as a read-out of the AHR activation or inhibition. Luciferase was measured with a commercial kit such as the Promega Luciferase kit or any kit or reagents that provide the luciferin substrate for measuring luciferase activity. The level of luciferase with only activating ligand added was the maximum signal while the luciferase with no ligand was the minimum signal. IC50 values were determined as the concentration which inhibits half of the luciferase activity.
A general note: Reporter assays use an easily measured gene product as a stand-in for the process of interest.

For the molecule `Cc1cnn2c(NCC(=O)c3c[nH]c4ccccc34)cc(-c3cncc(F)c3)nc12` [I-163, 2-[[5-(5-Fluoro-3-pyridyl)-3-methyl-pyrazolo[1,5-a]pyrimidin-7-yl]amino]-1-(1H-indol-3-yl)ethanone], the IC50 (in general, the point on the concentration scale where inhibition reaches its midpoint) is under 500 nM.

With `Fc1cncc(-c2nc(N[C@@H]3CCc4[nH]c5ccccc5c4C3)n3ncc(C4CCCCC4)c3n2)c1` [I-123, (3R)—N-[8-Cyclohexyl-2-(5-fluoro-3-pyridyl)pyrazolo[1,5-a][1,3,5]triazin-4-yl]-2,3,4,9-tetrahydro-1H-carbazol-3-amine], the IC50 lay within 1000 to 1500 nM.

Consider `Cc1cnn2c(NC(Cc3c[nH]c4ccccc34)C(N)=O)cc(-c3cncc(F)c3)nc12` (stereo not shown) [I-190b], for which the IC50 is over 1500 nM.

Take `CC(O)c1cnn2c(NCCc3c[nH]c4ccccc34)cc(-c3cncc(F)c3)nc12` (stereo not shown) [I-33, 1-[5-(5-Fluoro-3-pyridyl)-7-[2-(1H-indol-3-yl)ethylamino]pyrazolo[1,5-a]pyrimidin-3-yl]ethanol]: the IC50 was under 500 nM.

`CC(C)c1cnn2c(N[C@@H]3CCc4[nH]c5ccccc5c4C3)nc(C3CCOCC3)nc12` [I-258, (3R)—N-(8-Isopropyl-2-tetrahydropyran-4-yl-pyrazolo[1,5-a][1,3,5]triazin-4-yl)-2,3,4,9-tetrahydro-1H-carbazol-3-amine] registered a 50% inhibitory concentration (IC50) of over 1500 nM.

As for `CN1CCN(C(=O)c2cnn3c(N[C@@H]4CCc5[nH]c6ccccc6c5C4)cc(-c4cncc(F)c4)nc23)CC1` [I-29, [5-(5-Fluoro-3-pyridyl)-7-[[(3R)-2,3,4,9-tetrahydro-1H-carbazol-3-yl]amino]pyrazolo[1,5-a]pyrimidin-3-yl]-(4-methylpiperazin-1-yl)methanone], the IC50 was over 1500 nM.

Molecule `CN(C)c1cnn2c(N[C@@H]3CCc4[nH]c5ccccc5c4C3)cc(-c3cncc(F)c3)nc12` [I-175, 5-(5-Fluoro-3-pyridyl)-N3,N3-dimethyl-N7-[(3R)-2,3,4,9-tetrahydro-1H-carbazol-3-yl]pyrazolo[1,5-a]pyrimidine-3,7-diamine] displayed an IC50 of over 1500 nM.

For `CC(C)c1cnn2c(NCCc3c[nH]c(N)n3)nc(-c3cncc(F)c3)nc12` [I-266], the IC50 is over 1500 nM.

The molecule `Cc1cnn2c(N[C@@H]3CCc4[nH]c5c(F)cc(F)cc5c4C3)cc(-c3cncc(F)c3)nc12` [I-243a] returned an IC50 of over 1500 nM.

Turning to `Fc1cncc(-c2nc(NCCc3c[nH]c4ccccc34)cc(N3CCOCC3)n2)c1` [I-64, 2-(5-Fluoro-3-pyridyl)-N-[2-(1H-indol-3-yl)ethyl]-6-morpholino-pyrimidin-4-amine], the IC50 is under 500 nM.

Molecule `Fc1cncc(-c2cc(NCCc3c[nH]c4ccccc34)n3ncc(C4CCCO4)c3n2)c1` (stereo not shown) [I-226, 5-(5-Fluoro-3-pyridyl)-N-[2-(1H-indol-3-yl)ethyl]-3-tetrahydrofuran-2-yl-pyrazolo[1,5-a]pyrimidin-7-amine] showed an IC50 of under 500 nM.

In the case of `CNCc1cnn2c(NC3CCc4[nH]c5ccccc5c4C3)nc(-c3cncc(F)c3)nc12` (stereo not shown) [I-277], the IC50 is under 500 nM.

As for `Cc1cnn2c(NCCc3cc[nH]n3)cc(-c3cncc(F)c3)nc12` [I-180, 5-(5-Fluoro-3-pyridyl)-3-methyl-N-[2-(1H-pyrazol-3-yl)ethyl]pyrazolo[1,5-a]pyrimidin-7-amine], the IC50 lay in the range of 500 to 1000 nM.

`CON(C)C(=O)c1cnn2c(NC3CCc4[nH]c5ccccc5c4C3)nc(-c3cncc(F)c3)nc12` (stereo not shown) [I-286]: the IC50 was under 500 nM.

On to `CC(C)Oc1nc(NCCc2c[nH]c3ccccc23)nc(-c2cncc(F)c2)n1` [I-136, 4-(5-Fluoro-3-pyridyl)-N-[2-(1H-indol-3-yl)ethyl]-6-isopropoxy-1,3,5-triazin-2-amine], for which the IC50 is under 500 nM.

Take `CC(C)Oc1cc(-c2ccccc2)nc(NCCc2c[nH]c3ccccc23)n1` [I-155, N-(2-(1H-Indol-3-yl)ethyl)-4-isopropoxy-6-phenylpyrimidin-2-amine]: the IC50 is 500 to 1000 nM.

`CNC(=O)c1cnn2c(NCCc3c[nH]c4ccccc34)cc(-c3cncc(F)c3)nc12` [I-61, 5-(5-Fluoro-3-pyridyl)-7-[2-(1H-indol-3-yl)ethylamino]-N-methyl-pyrazolo[1,5-a]pyrimidine-3-carboxamide] registered an IC50 of under 500 nM.

`CC(C)c1cnn2c(NCCc3c[nH]c4ccccc34)cc(-c3cncnc3)nc12` [I-241, N-[2-(1H-Indol-3-yl)ethyl]-3-isopropyl-5-pyrimidin-5-yl-pyrazolo[1,5-a]pyrimidin-7-amine] returned an IC50 of under 500 nM.

Consider `N#Cc1cncc(-c2nc(NCCc3c[nH]c4ccccc34)cc(OC3CCCC3)n2)c1` [I-53, 5-[4-(Cyclopentoxy)-6-[2-(1H-indol-3-yl)ethylamino]pyrimidin-2-yl]pyridine-3-carbonitrile], for which the IC50 is under 500 nM.

`CC(C)c1cnn2c(NC3CCc4[nH]c5ccccc5c4C3)cc(-c3ccc4c(c3)OCO4)nc12` (stereo not shown) [I-239] gave an IC50 of over 1500 nM.

In turn, `O=C(O)c1cnn2c(NC[C@H](O)c3c[nH]c4ccccc34)cc(-c3cncc(F)c3)nc12` [I-158a] showed an IC50 of over 1500 nM.

Turning to `O=C(O)c1cnn2c(NCCc3c[nH]c4ccccc34)cc(-c3cncc(F)c3)nc12` [I-183], the IC50 is over 1500 nM.

Take `OCc1cnn2c(NC3CCc4[nH]c5ccccc5c4C3)nc(-c3cncc(F)c3)nc12` (stereo not shown) [I-278]: the IC50 is under 500 nM.

As to `CC(C)c1cnn2c(NCCc3c[nH]c4cccnc34)cc(-c3cncc(F)c3)nc12` [I-110, 5-(5-Fluoro-3-pyridyl)-3-isopropyl-N-[2-(1H-pyrrolo[3,2-b]pyridin-3-yl)ethyl]pyrazolo[1,5-a]pyrimidin-7-amine], the IC50 fell in the range of 500 to 1000 nM.

`Fc1cncc(-c2cc(N[C@@H]3CCc4[nH]c5ccccc5c4C3)n3ncc(C(F)(F)F)c3n2)c1` [I-35, (3R)—N-[5-(5-Fluoro-3-pyridyl)-3-(trifluoromethyl)pyrazolo[1,5-a]pyrimidin-7-yl]-2,3,4,9-tetrahydro-1H-carbazol-3-amine] returned an IC50 of over 1500 nM.

`C#Cc1cnn2c(NC3CCc4[nH]c5ccccc5c4C3)nc(-c3cncc(F)c3)nc12` (stereo not shown) [I-282] returned an IC50 of under 500 nM.

As to `Cc1cnn2c(NCCc3c[nH]c4cccnc34)nc(-c3cncc(F)c3)nc12` [I-186, 2-(5-Fluoro-3-pyridyl)-8-methyl-N-[2-(1H-pyrrolo[3,2-b]pyridin-3-yl)ethyl]pyrazolo[1,5-a][1,3,5]triazin-4-amine], the IC50 was 500 to 1000 nM.

Molecule `Cc1cnn2c(NC[C@H](C)c3c[nH]c4ccccc34)cc(-c3cncc(F)c3)nc12` [I-160b, 5-(5-Fluoro-3-pyridyl)-N-[(2R)-2-(1H-indol-3-yl)propyl]-3-methyl-pyrazolo[1,5-a]pyrimidin-7-amine] came in with an IC50 of over 1500 nM.

`CC(C)(C)c1cnn2c(N[C@@H]3CCc4[nH]c5ccccc5c4C3)nc(-c3cncc(F)c3)nc12` [I-132, (R)—N-(8-(tert-Butyl)-2-(5-fluoropyridin-3-yl)pyrazolo[1,5-a][1,3,5]triazin-4-yl)-2,3,4,9-tetrahydro-1H-carbazol-3-amine] had an IC50 of 500 to 1000 nM.

On to `Cc1cnn2c(N[C@@H](CO)Cc3c[nH]c4ccccc34)cc(-c3cncc(F)c3)nc12` [I-185], for which the IC50 is over 1500 nM.

`CC(C)N(C)c1cc(NCCc2c[nH]c3ccccc23)nc(-c2cncc(F)c2)n1` [I-93, 2-(5-Fluoro-3-pyridyl)-N6-[2-(1H-indol-3-yl)ethyl]-N4-isopropyl-N4-methyl-pyrimidine-4,6-diamine]: the IC50 was under 500 nM.

As for `Cc1cnn2c(N[C@H](Cc3c[nH]c4ccccc34)C(=O)N(C)C)cc(-c3cncc(F)c3)nc12` [I-187a], the IC50 is over 1500 nM.

In turn, `COc1cccc2c(CCNc3cc(-c4cncc(F)c4)nc4c(C)cnn34)c[nH]c12` [I-179, 5-(5-Fluoro-3-pyridyl)-N-[2-(7-methoxy-1H-indol-3-yl)ethyl]-3-methyl-pyrazolo[1,5-a]pyrimidin-7-amine] gave an IC50 of under 500 nM.

Molecule `O=C(O)c1cnn2c(NC3CCc4[nH]c5ccccc5c4C3)nc(-c3cncc(F)c3)nc12` (stereo not shown) [I-287] returned a half-maximal inhibitory concentration (IC50) of over 1500 nM.
